# In ChEMBL document CHEMBL1201862, “PubChem BioAssay data set” (2004):
# The source made the active and inactive calls.
# Tests used:
# [1] = P. falciparum 3D7-ScDHODH growth inhibitors, dose response, SYBR Green, dry powder samples (AID 1159570); assay type: functional, cell-based;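 also: parasite growth measured after 72 hours of compound exposure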
# [2] = HepG2 cell cytotoxicity, dose response, cytotoxicity control, plate reader, dry powder samples (AID 1159569); assay type: functional, cell-based;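 also: inhibitor potency with signal falling toward the positive control level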
# [3] = P. falciparum Dd2 growth inhibitors, dose response, SYBR Green, dry powder samples (AID 1159566); assay type: functional, cell-based;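 also: potency for growth inhibition with lower SYBR green DNA signal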
# [4] = P. falciparum ATP4 D1247Y mutant growth inhibitors, dose response, NITD609-resistant line, SYBR Green, dry powder (AID 1159571); assay type: functional, cell-based;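 also: parasites synchronized at ring stage by sorbitol before testing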
# HEK293 = assay: inhibitors of LMP1-driven NF-kB reporter, dose response, cell-based, HEK293, luciferase, cherry-pick (AID 588343); assay type: functional; conditions: Homo sapiens
# Leucine aminopeptidase = target: T1, Leucine aminopeptidase (Plasmodium falciparum 3D7, UniProt Q8IL11); assay: P. falciparum M17LAP inhibitors, primary screen, biochemical, fluorogenic H-Leu-NHMec substrate, 1536-well (AID 1619); assay type: functional
# T1 sequence (Q8IL11 whole entry): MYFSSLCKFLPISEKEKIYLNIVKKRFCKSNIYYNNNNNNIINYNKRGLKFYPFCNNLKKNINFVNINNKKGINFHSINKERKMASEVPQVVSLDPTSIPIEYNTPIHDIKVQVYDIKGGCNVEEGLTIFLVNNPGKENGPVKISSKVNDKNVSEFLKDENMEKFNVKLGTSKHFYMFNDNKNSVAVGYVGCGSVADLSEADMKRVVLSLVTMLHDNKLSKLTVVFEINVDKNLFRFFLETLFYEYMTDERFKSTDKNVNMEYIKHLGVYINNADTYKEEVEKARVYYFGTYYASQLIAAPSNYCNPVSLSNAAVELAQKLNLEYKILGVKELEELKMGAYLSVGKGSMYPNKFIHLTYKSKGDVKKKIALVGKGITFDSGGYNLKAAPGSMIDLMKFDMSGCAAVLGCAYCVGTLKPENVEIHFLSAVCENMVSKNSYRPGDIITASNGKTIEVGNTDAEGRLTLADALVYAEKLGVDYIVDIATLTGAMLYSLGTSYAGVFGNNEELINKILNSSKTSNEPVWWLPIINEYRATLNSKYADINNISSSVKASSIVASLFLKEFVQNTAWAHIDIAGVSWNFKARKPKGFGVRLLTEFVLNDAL
# [5] = target: T2, Heat shock factor protein 1 (Mus musculus, UniProt P38532); assay: inhibition of MG132-induced HSE-luciferase signal, confirmation, cell-based, NIH3T3, luminescence, dose retest (AID 2382); assay type: functional;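 also: NIH3T3 fibroblasts with HSF1-driven luciferase reporter stressed by proteasome inhibitor MG132; luminescence from HSF1-driven luciferase expression after 8 hours of MG132 stress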
# T2 sequence (P38532 whole entry): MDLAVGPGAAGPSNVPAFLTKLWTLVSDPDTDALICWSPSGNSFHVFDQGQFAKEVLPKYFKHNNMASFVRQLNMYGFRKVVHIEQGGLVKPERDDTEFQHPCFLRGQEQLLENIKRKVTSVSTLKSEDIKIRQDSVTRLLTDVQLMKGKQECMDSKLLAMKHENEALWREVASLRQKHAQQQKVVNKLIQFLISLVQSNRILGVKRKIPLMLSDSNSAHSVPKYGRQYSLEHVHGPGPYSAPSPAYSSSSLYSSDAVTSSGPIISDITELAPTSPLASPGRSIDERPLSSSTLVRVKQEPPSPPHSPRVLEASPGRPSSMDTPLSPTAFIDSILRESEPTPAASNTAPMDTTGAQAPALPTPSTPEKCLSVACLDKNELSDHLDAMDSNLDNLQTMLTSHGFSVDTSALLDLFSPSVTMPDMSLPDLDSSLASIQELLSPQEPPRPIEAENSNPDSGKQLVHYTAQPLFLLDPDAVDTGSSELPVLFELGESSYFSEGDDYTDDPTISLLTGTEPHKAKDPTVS
# [6] = intracellular Trypanosoma cruzi inhibitors in host cells – cell-based, plate reader, cherry-pick samples, set 3, dose response (AID 651818); assay type: functional;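 also: compounds incubated with infected cells for about four days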
# [7] = THP-1 cell cytotoxicity, dose response, cytotoxicity control for non-replicating M. tuberculosis project (AID 489025); assay type: functional
# [8] = Vero E6 cell cytotoxicity, dose response, cytotoxicity control for non-replicating M. tuberculosis project, secondary assay (AID 492998); assay type: functional, VeroE6; conditions: Vero C1008
# cells [9] = assay type: functional
# [10] = P. falciparum Dd2 growth inhibitors, dose response, SYBR Green, cherry-picked samples (AID 1159567); assay type: functional, cell-based
# cells [11] = assay type: functional, cell-based
# cells [12] = assay type: functional, cell-based; remark: listed apart in the source
# [13] = HepG2 cell cytotoxicity, dose response, cytotoxicity control, cherry-picked samples (AID 1159577); assay type: functional, cell-based
# [14] = A549 cell cytotoxicity, dose response, cytotoxicity control, plate reader, cherry-pick, antagonist series (AID 743412); assay type: functional, cell-based
# [15] = HepG2 cell cytotoxicity, dose response, cytotoxicity control, plate reader, cherry-pick, antagonist series (AID 743416); assay type: functional, cell-based
# [16] = LGR2 antagonists, dose response, cell-based, HEK293, CRE-luciferase reporter, cherry pick, set 2 (AID 743343); assay type: functional;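 also: transfected cells were stimulated with diluted bursicon conditioned medium after compound addition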
# [17] = MC4R antagonists, dose response, counter-screen for LGR2 antagonist project, cell-based, plate reader, cherry pick (AID 743444); assay type: functional;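 also: transfected HEK 293 cells stimulated with alpha-MSH peptide; potency of inhibitors of the alpha-MSH evoked signal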
# [18] = Luminescence Cell-Based Dose Confirmation HTS to Identify Activators of 5'UTR Stem-Loop Driven Alpha-Synuclein mRNA Translation in H4 Neuroglioblastoma Cells. [Related pubchem assays: 1829 (Project Summary), 1814 (Primary HTS)]; assay type: functional
# [19] = Luminescence Cell-Based Dose Response HTS to Identify Activators of Luciferase Translation or Activity in H4 […] Cells. [Related pubchem assays: 1829 (Project Summary), 1814 (Primary HTS)]; assay type: functional
# H4 = assay: Luminescence Cell-Based Dose Response HTS to Identify Activators of 5'UTR Stem-Loop Driven Prion Protein mRNA Translation in H4 Neuroglioblastoma Cells. [Related pubchem assays: 1829 (Project Summary), 1814 (Primary HTS)]; assay type: functional; conditions: Homo sapiens
# [20] = inhibitors of intracellular T. cruzi replication, confirmation, NIH3T3 host cells, beta-gal luminescence (AID 2044); assay type: functional, cell-based;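 also: intracellular parasites grown in NIH/3T3 mouse fibroblasts as host cells; luminescent beta-galactosidase reporter signal from transgenic T. cruzi replicating inside host cells; inhibitors lower the luminescence signal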
# [21] = cytotoxicity toward NIH3T3 fibroblasts, dose response, counter-screen, cell-based, ATP luminescence, mouse fibroblasts (AID 2010); assay type: functional;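 also: cells exposed to compound for about 90 hours before reading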
# [22] = target: T3, DNA repair protein RAD52 homolog (Homo sapiens, UniProt P43351); assay type: functional, biochemical
# T3 sequence (P43351 whole entry): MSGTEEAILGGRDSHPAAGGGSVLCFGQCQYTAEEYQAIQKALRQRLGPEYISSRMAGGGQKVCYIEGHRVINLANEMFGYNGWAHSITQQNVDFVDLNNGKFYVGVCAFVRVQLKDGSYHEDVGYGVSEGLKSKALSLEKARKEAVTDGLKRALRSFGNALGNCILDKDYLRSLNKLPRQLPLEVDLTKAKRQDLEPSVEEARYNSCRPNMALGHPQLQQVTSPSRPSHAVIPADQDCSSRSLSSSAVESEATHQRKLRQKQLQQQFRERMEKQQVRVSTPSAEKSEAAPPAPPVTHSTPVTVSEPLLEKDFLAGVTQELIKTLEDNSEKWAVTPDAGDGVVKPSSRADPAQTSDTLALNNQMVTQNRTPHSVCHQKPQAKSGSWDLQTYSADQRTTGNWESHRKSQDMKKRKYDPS
# [23] = inhibitors of firefly luciferase expression or activity, dose response, H4 neuroglioma cells, luminescence (AID 1990); assay type: functional, cell-based
# [24] = Luminescence Cell-Based Dose Response HTS to Identify Inhibitors of 5'UTR Stem-Loop Driven Prion Protein mRNA Translation in H4 Neuroglioblastoma Cells. [Related pubchem assays: 1827 (Project Summary), 1813 (Primary HTS)]; assay type: functional
# [25] = inhibitors of SNCA 5'UTR-driven reporter translation, confirmation, H4 neuroglioma cells, luminescence (AID 1988); assay type: functional, cell-based
smiles,measurement,setting,value
COc1ccccc1CN1CC2(C1)[C@H](c1ccccc1)[C@@H](CO)N2Cc1ccccc1,AC50,[1],0.765 µM (active)
same,AC50,[2],24.9 µM (active)
same,AC50,[3],0.477 µM (active)
same,AC50,[4],0.656 µM (active)
COc1cc2c(cc1OC)C(c1ccc(-c3ccccc3Cl)o1)=NCC2,AC50,HEK293,15.2 µM (active)
CCCn1c(C)cc(C(=O)COC(=O)c2cccnc2O)c1C,IC50,Leucine aminopeptidase,15.3 µM (active)
same,EC50,[5],0.289 µM (active)
same,AC50,HEK293,5.4 µM (active)
Cc1ccc(S(=O)(=O)Nc2ccc3c(c2)C(=O)N([C@@H](C)CO)C[C@H](C)[C@H](CN(C)Cc2ccc(-c4ccccc4)cc2)O3)cc1,AC50,[6],5.6 µM (active)
CN1C(=O)C(=C(Nc2ccccc2)SCc2ccccc2Cl)C(=O)N(C)C1=O,CC50,[7],> 40 µM (active)
same,CC50,[8],> 20 µM (active)
same,IC50,cells [9],3.96 µM (active)
O=C(Nc1cccc(Cl)c1N1CCCC1)c1ccc([N+](=O)[O-])o1,CC50,[7],24 µM (active)
same,CC50,[8],12.4 µM (active)
same,IC50,cells [9],18.4 µM (active)
C[C@@H]1CCCCO[C@@H](CN(C)Cc2ccc(C(=O)Nc3ccccc3N)cc2)[C@@H](C)CN([C@H](C)CO)C(=O)c2cc(NS(=O)(=O)c3cccs3)ccc2O1,AC50,[6],2.39 µM (active)
COc1cccc(S(=O)(=O)N2CCC3(CC2)CN[C@H](CO)c2[nH]c4cc(OC)ccc4c23)c1,AC50,[1],4.68 µM (active)
same,AC50,[2],33.2 µM (active)
same,AC50,[10],2.6 µM (active)
same,AC50,[3],2.53 µM (active)
same,AC50,[4],2.52 µM (active)
CCC(c1nnnn1Cc1ccco1)N(CCc1ccccc1)Cc1cc2cc(C)ccc2nc1O (stereo unspecified),IC50,cells [11],> 29.9 µM (inactive)
same,EC50,cells [12],> 29.9 µM (inactive)
C[C@@H]1CN([C@H](C)CO)C(=O)Cc2cc(NS(=O)(=O)c3ccc(Cl)cc3)ccc2O[C@H]1CN(C)Cc1ccccc1,AC50,[6],3.09 µM (active)
Cc1ccccc1-c1ccc2c(c1)O[C@@H](CN(C)Cc1ccncc1)[C@H](C)CN([C@H](C)CO)S2(=O)=O,AC50,[10],3.9 µM (active)
same,AC50,[13],> 39 µM (inactive)
CCCc1cn(CC[C@H]2CC[C@H](NS(=O)(=O)c3ccc(-c4ccccc4)cc3)[C@@H](CO)O2)nn1,AC50,[10],4.48 µM (active)
same,AC50,[13],> 39 µM (inactive)
Cc1ccc(-c2nnc(NC(=O)c3ccco3)o2)c(C)c1,CC50,[7],> 40 µM (active)
same,CC50,[8],17.5 µM (active)
same,IC50,cells [9],0.81 µM (active)
COc1ccc2c3c(n(C)c2c1)[C@@H](CO)N(C(=O)Nc1ccc(F)cc1)CC31CN(Cc2ccccc2F)C1,AC50,[10],5.53 µM (active)
same,AC50,[13],24.2 µM (active)
N#C[C@H]1[C@@H](c2ccc(C#Cc3ccccc3F)cc2)[C@@H](CO)N1C(=O)C1CCCC1,AC50,[1],1.69 µM (active)
same,AC50,[2],54.2 µM (active)
same,AC50,[10],1.84 µM (active)
same,AC50,[3],1.18 µM (active)
same,AC50,[13],> 39 µM (inactive)
same,AC50,[4],1.88 µM (active)
C[C@H]1CN([C@@H](C)CO)C(=O)Cc2cc(NS(=O)(=O)c3ccc(Cl)cc3)ccc2O[C@@H]1CN(C)Cc1ccc(Oc2ccccc2)cc1,AC50,[6],3.33 µM (active)
C=CCc1c(C)nc2cc(-c3ccc(C)cc3)nn2c1O,AC50,[14],13.6 µM (active)
same,AC50,[15],22.6 µM (active)
same,AC50,[16],26.4 µM (active)
same,AC50,[17],26.2 µM (active)
C[C@H](CO)N1C[C@H](C)[C@@H](CN(C)S(=O)(=O)c2ccc(F)cc2)Oc2c(NC(=O)NC3CCCCC3)cccc2C1=O,AC50,[6],7.84 µM (active)
CCc1nc(SCC(=O)c2ccc3c(c2)OCCO3)c2ccccc2n1,AC50,HEK293,32.8 µM (active)
CCOC(=O)c1sc(NC(=O)Nc2ccccc2F)nc1C,AC50,[15],> 52 µM (inactive)
same,AC50,[16],2.48 µM (active)
same,AC50,[17],4.34 µM (active)
COc1cccc(-c2nc(N3CCN(C)CC3)c3ccccc3n2)c1O,EC50,[18],> 120 µM (not active)
same,EC50,[19],12.9 µM (active)
same,EC50,H4,> 120 µM (not active)
same,EC50,[20],< 0.1 µM (active)
same,EC50,[21],> 60 µM (not active)
same,AC50,[22],3.52 µM (active)
CC(=O)OCCc1c2ccccc2c(CCCN(C)C)c2ccccc12,EC50,[23],> 120 µM (not active)
same,EC50,[24],> 120 µM (not active)
same,EC50,[25],> 120 µM (not active)
same,AC50,[22],11.2 µM (active)
OC[C@@H]1[C@H](c2ccc(-c3ccccc3)cc2)[C@H]2CN(CCC(F)(F)F)CCCCN12,AC50,[1],1.15 µM (active)
same,AC50,[2],18 µM (active)
same,AC50,[10],2.13 µM (active)
same,AC50,[3],0.623 µM (active)
same,AC50,[13],21.7 µM (active)
same,AC50,[4],1.29 µM (active)
C[C@H]1CN([C@@H](C)CO)C(=O)CCCn2nncc2CO[C@@H]1CN(C)C(=O)Nc1ccc(N2CCN(C)CC2)cc1,AC50,[22],28.2 µM (active)
